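In this assay, cells in 96-well plates receive the compound at five concentrations for 48 hours. Endpoints are linearly interpolated between the surrounding concentrations. Abbreviation: GI50, concentration required for 50% inhibition of growth.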 Calls of active or inactive are those of the source. Rule as the data show it: active = GI50 up to about 1.1 µM and inactive = higher.
Legend:
Assay in all cases: NCI-60 cell line screen, 48 h
ACHN = test system: ACHN
CCRF-CEM = test system: CCRF-CEM
DU-145 = test system: DU-145
EKVX = test system: EKVX
HCC 2998 = test system: HCC 2998
HCT-15 = test system: HCT-15
HT-29 = test system: HT-29
M14 = test system: M14
MDA-MB-231 = test system: MDA-MB-231
MDA-N = test system: MDA-N
NCI-H522 = test system: NCI-H522
OVCAR-3 = test system: OVCAR-3
PC-3 = test system: PC-3
RXF 393 = test system: RXF 393
SF-295 = test system: SF-295
SF-539 = test system: SF-539
SK-MEL-5 = test system: SK-MEL-5
TK-10 = test system: TK-10
Malme-3M = test system: Malme-3M

| Compound | GI50 (ACHN) | GI50 (CCRF-CEM) | GI50 (DU-145) | GI50 (EKVX) | GI50 (HCC 2998) | GI50 (HCT-15) | GI50 (HT-29) | GI50 (M14) | GI50 (MDA-MB-231) | GI50 (MDA-N) | GI50 (NCI-H522) | GI50 (OVCAR-3) | GI50 (PC-3) | GI50 (RXF 393) | GI50 (SF-295) | GI50 (SF-539) | GI50 (SK-MEL-5) | GI50 (TK-10) | GI50 (Malme-3M) |
| --- | --- | --- | --- | --- | --- | --- | --- | --- | --- | --- | --- | --- | --- | --- | --- | --- | --- | --- | --- |
| Nc1nc(N)c2nn(-c3ccc(C(=O)O)cc3)nc2n1 | > 100 µM (inactive) | > 100 µM (inactive) | > 100 µM (inactive) | > 100 µM (inactive) | > 100 µM (inactive) | > 100 µM | > 100 µM (inactive) | > 100 µM (inactive) | > 100 µM (inactive) | > 100 µM (inactive) | > 100 µM (inactive) | > 100 µM (inactive) | > 100 µM (inactive) | > 100 µM (inactive) | > 100 µM (inactive) | > 100 µM (inactive) | > 100 µM (inactive) | > 100 µM (inactive) | – |
| O=C1Nc2ccccc2/C1=N/NS(=O)(=O)c1ccc(C(=O)O)cc1 | > 100 µM (inactive) | > 100 µM (inactive) | > 100 µM (inactive) | 74.5 µM (inactive) | > 100 µM (inactive) | > 100 µM | > 100 µM (inactive) | > 100 µM (inactive) | > 100 µM (inactive) | > 100 µM (inactive) | > 100 µM (inactive) | > 100 µM (inactive) | > 100 µM (inactive) | > 100 µM (inactive) | > 100 µM (inactive) | > 100 µM (inactive) | > 100 µM (inactive) | > 100 µM (inactive) | > 100 µM (inactive) |
| CCCCCCCCCCCCCCCCNc1nc(=O)n(C2CC(O)C(COP(=O)(O)OC3CC(n4cc(F)c(=O)[nH]c4=O)OC3CO)O2)cc1F (stereo not given) | 0.0234 µM (active) | < 0.0122 µM (active) | 0.222 µM (active) | 26.4 µM (inactive) | < 0.01 µM (active) | 3.18 µM | 1.87 µM (inactive) | 0.687 µM (active) | 28.4 µM (inactive) | 19.4 µM (inactive) | 8.75 µM (inactive) | 10 µM (inactive) | 6.35 µM (inactive) | 6.97 µM (inactive) | – | < 0.0108 µM (active) | 0.571 µM (active) | 25.7 µM (inactive) | 12.1 µM (inactive) |
| CNC(=O)CNC(=O)C(Cc1ccc(NC(=O)CCCCC(C)=O)cc1)NC(=O)C(CCC(=O)OCc1ccccc1)NC(=O)OC(C)(C)C (stereo not given) | > 100 µM (inactive) | – | > 100 µM (inactive) | > 100 µM (inactive) | > 100 µM (inactive) | > 100 µM | > 100 µM (inactive) | > 100 µM (inactive) | > 100 µM (inactive) | > 100 µM (inactive) | > 100 µM (inactive) | > 100 µM (inactive) | > 100 µM (inactive) | > 100 µM (inactive) | > 100 µM (inactive) | > 100 µM (inactive) | > 100 µM (inactive) | > 100 µM (inactive) | > 100 µM (inactive) |
| O=c1[nH]nc(Cc2ccccc2)n1/N=C\c1ccccc1 | > 100 µM (inactive) | > 100 µM (inactive) | > 100 µM (inactive) | > 100 µM (inactive) | > 100 µM (inactive) | > 100 µM | > 100 µM (inactive) | – | > 100 µM (inactive) | > 100 µM (inactive) | > 100 µM (inactive) | > 100 µM (inactive) | > 100 µM (inactive) | 24.6 µM (inactive) | 43.9 µM (inactive) | > 100 µM (inactive) | > 100 µM (inactive) | > 100 µM (inactive) | > 100 µM (inactive) |
| CCOc1c2ccsc2c(OCC)c2ccsc12 | 7.1 µM (inactive) | 3.77 µM (inactive) | 5 µM (inactive) | > 29.6 µM (inactive) | 6.56 µM (inactive) | 4.06 µM | 3.48 µM (inactive) | 4.69 µM (inactive) | 8.57 µM (inactive) | 0.94 µM (active) | 3.27 µM (inactive) | 3.52 µM (inactive) | 3.94 µM (inactive) | 3.59 µM (inactive) | 2.57 µM (inactive) | 2.41 µM (inactive) | 3.34 µM (inactive) | > 100 µM (inactive) | 3.73 µM (inactive) |
| N=C(N)c1ccc2oc3ccc(C(=N)N)cc3c(=O)c2c1 | > 100 µM (inactive) | > 100 µM (inactive) | > 100 µM (inactive) | – | > 100 µM (inactive) | > 100 µM | > 100 µM (inactive) | > 100 µM (inactive) | > 100 µM (inactive) | > 100 µM (inactive) | > 100 µM (inactive) | > 100 µM (inactive) | > 100 µM (inactive) | > 100 µM (inactive) | > 100 µM (inactive) | > 100 µM (inactive) | > 100 µM (inactive) | > 100 µM (inactive) | 98.2 µM (inactive) |
| CC(C)(O)C1CC(=O)C(C)(C2C(O)CC3(C)C4CC=C5C(CCC(O)C5(C)C)C4(C)C(=O)CC23C)O1 (stereo not given) | > 100 µM (inactive) | – | > 100 µM (inactive) | > 100 µM (inactive) | > 100 µM (inactive) | > 100 µM | > 100 µM (inactive) | > 100 µM (inactive) | > 100 µM (inactive) | > 100 µM (inactive) | > 100 µM (inactive) | > 100 µM (inactive) | > 100 µM (inactive) | > 100 µM (inactive) | > 100 µM (inactive) | > 100 µM (inactive) | > 100 µM (inactive) | > 100 µM (inactive) | – |
| O=[N+]([O-])c1cccc2nc3ccccc3c(NCCCCNc3c4ccccc4nc4cccc([N+](=O)[O-])c34)c12 | 0.017 µM (active) | < 0.016 µM (active) | 0.0232 µM (active) | 0.104 µM (active) | 0.0254 µM (active) | 0.0204 µM | < 0.01 µM (active) | 0.0389 µM (active) | 0.0178 µM (active) | 0.0536 µM (active) | 0.0214 µM (active) | 0.0395 µM (active) | 0.0719 µM (active) | 0.0188 µM (active) | 0.0927 µM (active) | 0.0244 µM (active) | 0.0365 µM (active) | 0.0213 µM (active) | 0.0766 µM (active) |
| CN(C)c1nc(N(C)C)nc(N(C)C23CC4CC(CC(C4)C2)C3)n1 | 41.3 µM (inactive) | 22.4 µM (inactive) | 41.1 µM (inactive) | 32 µM (inactive) | 39.6 µM (inactive) | > 100 µM | – | 33.3 µM (inactive) | 23.8 µM (inactive) | 21 µM (inactive) | 16.9 µM (inactive) | 17.1 µM (inactive) | 24.5 µM (inactive) | 20 µM (inactive) | 18.4 µM (inactive) | 31.8 µM (inactive) | – | – | 33 µM (inactive) |
| S=C(NCCc1ccccn1)c1nc[nH]c1C(=S)NCCc1ccccn1 | 36.3 µM (inactive) | 26.1 µM (inactive) | 30.8 µM (inactive) | 83.8 µM (inactive) | 76.9 µM (inactive) | 34.6 µM | > 100 µM (inactive) | 31.9 µM (inactive) | > 100 µM (inactive) | 41.7 µM (inactive) | – | 37.9 µM (inactive) | 39.2 µM (inactive) | 23 µM (inactive) | 25.1 µM (inactive) | – | 31.7 µM (inactive) | 62.1 µM (inactive) | 35.4 µM (inactive) |
| COC(=O)C12C3C4(C(=O)OC)C1C1(C(=O)OC)C2C3(C(=O)OC)C41C(=O)N(C(C)C)C(C)C (stereo not given) | > 100 µM (inactive) | > 100 µM (inactive) | > 100 µM (inactive) | > 100 µM (inactive) | > 100 µM (inactive) | > 100 µM | > 100 µM (inactive) | > 100 µM (inactive) | > 100 µM (inactive) | > 100 µM (inactive) | > 100 µM (inactive) | > 100 µM (inactive) | > 100 µM (inactive) | > 100 µM (inactive) | > 100 µM (inactive) | > 100 µM (inactive) | > 100 µM (inactive) | > 100 µM (inactive) | – |
| CC(=O)OCC1OC(Oc2cc(C)c(O)cc2C/C=C(\C)CC/C=C(\C)CC(=O)CC(C)C)C(O)C(OC(C)=O)C1OC(C)=O (stereo not given) | 14.2 µM (inactive) | 9.82 µM (inactive) | 23.3 µM (inactive) | 4.6 µM (inactive) | 10.7 µM (inactive) | 14.3 µM | 6 µM (inactive) | 5.22 µM (inactive) | 11.2 µM (inactive) | 18 µM (inactive) | 13.6 µM (inactive) | 8.81 µM (inactive) | 14.2 µM (inactive) | 9.77 µM (inactive) | 15.1 µM (inactive) | – | 8.13 µM (inactive) | 16.2 µM (inactive) | > 50 µM (inactive) |
| O=[N+]([O-])c1cc(-c2nnc(C34CC5CC(CC(C5)C3)C4)o2)cc([N+](=O)[O-])c1 | 58.6 µM (inactive) | > 100 µM (inactive) | 33 µM (inactive) | > 100 µM (inactive) | 70.5 µM (inactive) | 21.1 µM | 6.41 µM (inactive) | 21.5 µM (inactive) | 39.2 µM (inactive) | 24.4 µM (inactive) | > 100 µM (inactive) | 63.5 µM (inactive) | 45.2 µM (inactive) | > 100 µM (inactive) | > 100 µM (inactive) | > 100 µM (inactive) | 14.1 µM (inactive) | – | 64.4 µM (inactive) |
| CC(=O)NC1=C(C)C(=O)c2c(nc3n2CCC3OC(=O)c2ccccc2)C1=N (stereo not given) | 1.71 µM (inactive) | 1.58 µM (inactive) | 1.97 µM (inactive) | 2.55 µM (inactive) | 2.06 µM (inactive) | 2.72 µM | 0.973 µM (active) | 1.01 µM (active) | 2.07 µM (inactive) | 0.182 µM (active) | 3.83 µM (inactive) | 0.552 µM (active) | 1.32 µM (inactive) | 1.29 µM (inactive) | 2.86 µM (inactive) | 1.25 µM (inactive) | 1.42 µM (inactive) | 3.5 µM (inactive) | 1.13 µM (inactive) |
